Publication PMC7665585, “Antidepressive effect of an inward rectifier K^+ channel blocker peptide, tertiapin-RQ” (PLoS ONE, 2020)
Bridge positions count the residues as written; N and C are the ends. Peptide text beside a SMILES is read from it.

Assays:
Male ICR mice = assay: Wheel running test; format: in vivo, mouse; details: i.c.v.; 4 min, immediately after EPM
Experimental: We performed mouse behavioral experiments in accordance with our previous study. Male ICR mice (n = 199 in total) aged 5 weeks old were purchased from Shimizu Laboratory Supplies (Kyoto, Japan) and maintained in an animal facility for 7–12 days. They had free access to food and water and were kept in a 12-h light/dark cycle (08:00–20:00). Experiments were carried out between 11:00 and 17:00 in a quiet and air-conditioned experimental room, to which mice were habituated for 30–60 min before each experiment. Animal experiments were performed in accordance with the guidelines of the Physiological Society of Japan and were approved by the Committee for Animal Experiments of Kurashiki University of Science and the Arts. Peptides were dissolved in phosphate-buffered saline (PBS). Peptides were injected intracerebroventricularly (i.c.v.) 30 min before behavioral tests (typically 5 μL/mouse), according to a previous study. The mouse was placed into an anesthetizing jar, to which isoflurane (0.2 mL) was added immediately before. […]
Spontaneous motor activity was measured with a multifunctional activity wheel (MK-770, Muromachi Kikai, Tokyo, Japan). […] The number of rotations was counted automatically.

mouse GIRK1/2 = target: T1, mouse GIRK1/2 (Mus musculus, UniProt P48542+P63250); assay: Whole-cell patch-clamp of GIRK1/2 in transfected 293T cells; format: cell-based
T1 construct: expressed in transfected cells; host or cells: 293T cells, transient calcium phosphate transfection, pCMV6 plasmid
T1 sequence (P63250 1-501): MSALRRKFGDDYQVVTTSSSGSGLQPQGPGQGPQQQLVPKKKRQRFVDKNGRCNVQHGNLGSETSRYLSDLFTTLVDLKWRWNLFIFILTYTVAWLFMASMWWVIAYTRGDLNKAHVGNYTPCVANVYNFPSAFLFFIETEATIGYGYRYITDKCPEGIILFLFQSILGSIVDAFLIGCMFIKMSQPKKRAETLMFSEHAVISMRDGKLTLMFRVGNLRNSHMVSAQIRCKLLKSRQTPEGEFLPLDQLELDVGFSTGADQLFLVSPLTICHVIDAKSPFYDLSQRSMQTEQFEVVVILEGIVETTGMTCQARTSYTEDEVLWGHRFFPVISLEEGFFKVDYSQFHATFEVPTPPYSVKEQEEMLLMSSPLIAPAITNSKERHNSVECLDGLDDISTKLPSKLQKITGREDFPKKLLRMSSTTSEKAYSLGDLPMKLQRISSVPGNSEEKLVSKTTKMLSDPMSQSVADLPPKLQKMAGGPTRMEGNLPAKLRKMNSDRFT
T1 sequence (P48542 1-425): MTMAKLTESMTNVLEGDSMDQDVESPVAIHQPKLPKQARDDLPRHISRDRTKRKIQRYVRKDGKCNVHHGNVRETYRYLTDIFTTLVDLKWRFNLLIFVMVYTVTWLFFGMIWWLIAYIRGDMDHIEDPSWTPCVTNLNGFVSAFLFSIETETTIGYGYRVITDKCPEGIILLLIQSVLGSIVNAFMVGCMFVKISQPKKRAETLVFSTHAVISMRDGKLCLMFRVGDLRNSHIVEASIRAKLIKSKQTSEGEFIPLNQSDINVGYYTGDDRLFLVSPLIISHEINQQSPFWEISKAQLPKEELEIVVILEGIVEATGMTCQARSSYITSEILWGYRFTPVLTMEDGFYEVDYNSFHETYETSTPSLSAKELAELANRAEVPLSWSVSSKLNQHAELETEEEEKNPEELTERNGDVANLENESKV
Text: The cDNAs for rat ROMK and mouse GIRK1, 2, and 4 were generously donated by Drs Mikio Hayashi (Kansai Medical University) and David Weaver (Vanderbilt University). The ROMK channels were stably expressed by a cell line, 208–4, which was transduced with lentiviral vectors coexpressing the channel and green fluorescent protein (GFP) as described previously. The GIRK genes, cloned in a pCMV6 plasmid (Origene Technologies Inc, Rockville, MD), were transiently expressed in 293T cells with calcium phosphate transfection. GIRK channel currents were recorded 24 h after transfection.
Cells grown on small cover glasses (3 × 18 mm) were placed in a recording chamber. Whole-cell currents were recorded in Tyrode solution using an Axopatch 200B amplifier (Axon Instruments, Foster City, CA) at 25°C. Tyrode solution contained (in mM): NaCl 140, KCl 5.4, NaH2PO4 0.33, CaCl2 2, MgCl2 1, HEPES 5, and glucose 5.5 (pH 7.4 adjusted with NaOH). […] Whole-cell currents were recorded 60 sec after the peptide application and those from 100 to 300 msec of the step pulses were averaged. […] Whole-cell conductance was calculated as the slope of the current-voltage (I-V) relationship from -140 mV to -100 mV and normalized to the initial value (0 μM TPN), in which BaCl2-resistant current was subtracted and indicted as a percentage.

| Compound | spontaneous rotations in activity wheel (Male ICR mice) | IC50 (mouse GIRK1/2; 293T cells transiently expressing mouse GIRK1/2, high K+ Tyrode solution (Fig 7), read-out: IC50, GIRK1/2 conductance) [nM] | difference in IC50, GIRK1/2 over ROMK (mouse GIRK1/2; ratio of IC50 GIRK1/2 to IC50 ROMK) [fold] |
| --- | --- | --- | --- |
| CC[C@H](C)[C@@H]1NC(=O)[C@H](CCCNC(=N)N)NC(=O)[C@H](CCCNC(=N)N)NC(=O)[C@H](CC(N)=O)NC(=O)[C@@H]2CSSC[C@@H](C(=O)NCC(=O)N[C@@H](CCCCN)C(=O)N[C@@H](CCCCN)C(N)=O)NC(=O)[C@H](CCCCN)NC(=O)[C@H](CCCCN)NC(=O)[C@H](Cc3c[nH]c4ccccc34)NC(=O)[C@H](CSSC[C@H](NC(=O)[C@H](CC(C)C)NC(=O)[C@H](C)N)C(=O)N[C@@H](CC(N)=O)C(=O)N2)NC(=O)[C@H](CCC(N)=O)NC(=O)[C@H](Cc2c[nH]cn2)NC(=O)[C@@H]2CCCN2C(=O)[C@H]([C@@H](C)CC)NC1=O [Peptide 2, TPN-RQ] (H-ALCNCNRRIIPHQCWKKCGKK-NH2; disulfide 3-14, 5-18) | decreased spontaneous motor activity | 610 | – |
| CC[C@H](C)[C@@H]1NC(=O)[C@H](CCCNC(=N)N)NC(=O)[C@H](CC(N)=O)NC(=O)[C@@H]2CSSC[C@@H](C(=O)NCC(=O)N[C@@H](CCCCN)C(=O)N[C@@H](CCCCN)C(N)=O)NC(=O)[C@H](CCCCN)NC(=O)[C@H](CCCCN)NC(=O)[C@H](Cc3c[nH]c4ccccc34)NC(=O)[C@H](CSSC[C@H](NC(=O)[C@H](CC(C)C)NC(=O)[C@H](C)N)C(=O)N[C@@H](CC(N)=O)C(=O)N2)NC(=O)[C@H](CCC(N)=O)NC(=O)[C@H](CC(C)C)NC(=O)[C@@H]2CCCN2C(=O)[C@H]([C@@H](C)CC)NC(=O)[C@H]([C@@H](C)CC)NC1=O [Peptide 3, TPN-LQ] (H-ALCNCNRIIIPLQCWKKCGKK-NH2; disulfide 3-14, 5-18; N-terminus and C-terminus assumed) | decreased | – | 20.9 |
